Reference: article PMC9452909, “Monomethylsulochrin isolated from biomass extract of Aspergillus sp. against Leishmania amazonensis: In vitro biological evaluation and molecular docking” (Frontiers in Cellular and Infection Microbiology, 2022)
Converted amounts (≈) assume the structure as drawn. Where two headings read alike, the source gives them in different places.

Experiments:
[1] = system: L. mexicana promastigote forms; parameters: method as in Hay et al. (2008); settings: ref Hay et al. (2008); cited from earlier work
[2] = system: L. infantum promastigote forms; parameters: method as in Hay et al. (2008); settings: ref Hay et al. (2008); cited from earlier work
[3] = system: L. infantum intracellular amastigote forms; parameters: method as in Hay et al. (2008); settings: ref Hay et al. (2008); cited from earlier work
[4] = system: L. amazonensis promastigote; assay: Antileishmanial activity assay, promastigote forms (live parasite counting); assay type: cell-based, Leishmania amazonensis; settings: 24 h; for IC50: Leishmania amazonensis, mean ± SD
Procedure: Promastigote forms of L. amazonensis H21 (MHOM/BR/76/MA-76) were cultured at 26°C in Schneider’s insect medium. The culture was supplemented with 10% FBS, 100 IU/ml of penicillin, and 100 µg/ml of streptomycin in a maximum of 10 in vitro passages ([Almeida-Souza et al., 2016]).
In 96-well plates, the promastigote forms of L. amazonensis (10^6 parasites/ml) from a 3- to 5-day-old culture were incubated for 24 h in the presence of different concentrations of pseurotin A at 7.24–579.5 μM and monomethylsulochrin at 9.0–721.9 μM, in a final volume of 100 µL per well. The viability of parasites was evaluated after treatment by counting the total number of live promastigotes, considering the flagellar motility, using Neubauer’s camera and optical light microscope ([Rottini et al., 2019]). This count was compared with the score of non-treated promastigote growth. This experiment was carried out in independent triplicate with each condition performed in triplicate. The results were expressed as parasite growth inhibitory concentration of 50% (IC50). Wells with medium and without parasites were used as blanks, and wells with parasites only incubated with medium were used as controls. […] Activity against intracellular amastigote was performed in 24-well plates, with coverslips, with peritoneal macrophages cultured (5 × 10^5 cells per well) and infected with promastigote forms of L. amazonensis using a ratio of 10:1 parasites per cell. After 6 h, the cells were washed three times with PBS to remove free parasites. […] For the light microscopy analysis, the coverslips with the infected and treated cells were then fixed with Bouin solution and stained with Giemsa. The IC50 values of all compounds tested were calculated from the total of intracellular amastigote from 100 cells. Parameters of infection analysis were performed according to [Silva-Silva et al. (2021a)].

[5] = system: L. amazonensis intracellular amastigote; assay: Activity against intracellular amastigote in infected peritoneal macrophages; assay type: cell-based, Leishmania amazonensis; settings: 24 h; for IC50: Leishmania amazonensis, Peritoneal macrophage, in Mus musculus, read-out: L. amazonensis Intracellular amastigote IC50
Procedure: The viability of parasites was evaluated after treatment by counting the total number of live promastigotes, considering the flagellar motility, using Neubauer’s camera and optical light microscope ([Rottini et al., 2019]). This count was compared with the score of non-treated promastigote growth. This experiment was carried out in independent triplicate with each condition performed in triplicate. […] Wells with medium and without parasites were used as blanks, and wells with parasites only incubated with medium were used as controls. […] After 6 h, the cells were washed three times with PBS to remove free parasites. […] For the light microscopy analysis, the coverslips with the infected and treated cells were then fixed with Bouin solution and stained with Giemsa. […] Parameters of infection analysis were performed according to [Silva-Silva et al. (2021a)].

[6] = Cytotoxicity assay (MTT); assay type: cell-based; settings: mouse
Procedure: The animals were stimulated by intraperitoneal inoculation of 3.0 ml of sodium thioglycolate at 3.0%. After 72 h of elicitation, the animals were euthanized with 10% ketamine (Syntec, São Paulo, BRA) and 2% xylazine (Syntec, São Paulo, BRA) according to the weight of each animal and, after death, the animal’s skin was retracted by incision and subsequent divulsion for peritoneum exposure. A total of 10.0 ml of sterile pH 7.2 phosphate-buffered saline (PBS) was inoculated, and a light manual massage was performed. The cells were then harvested from the peritoneum and dispensed in a sterile conical tube. The peritoneal lavage was centrifuged at 380g for 5 min, and cells were suspended in culture medium (RPMI 1640 medium supplemented with 10% FBS, penicillin [100 U/ml], and [100 μg/ml] streptomycin) and incubated at 37°C, 5% CO2 overnight ([Almeida-Souza et al., 2018]).
Wells without cells were used as blank, and wells with cells and 1% DMSO were used as control. After 24-h incubation period, cell viability was assessed by MTT. The cytotoxicity of 50% (CC50) was calculated following the method described elsewhere by [Oliveira et al. (2018)]. The selectivity index (SI) was obtained from the ratio of peritoneal macrophages CC50 and IC50.

[7] = system: L. amazonensis promastigote forms; assay: Transmission electron microscopy, ultrastructural alterations; assay type: cell-based, Leishmania amazonensis; settings: 18.04 µM (IC50), 24 h; p = 0.0016, 0.0016, 0.0480, 0.0079
Procedure: The transmission electron microscopy was performed to evaluate if monomethylsulochrin induced any ultrastructural alterations to the L. amazonensis promastigote forms. Parasites were treated with monomethylsulochrin with IC50 for 24 h and fixed with 2.5% glutaraldehyde in sodium cacodylate buff;er (0.1 M, pH 7.2) for overnight, then washed three times with 0.1 M sodium cacodylate buffer and postfixed in a solution containing 1% osmium tetroxide, 0.8% ferrocyanide, and 5 mM calcium chloride. 0.1 M sodium cacodylate buffer was used for washing, before being dehydrated in graded acetone and embedded in EPON 812 resin. Ultrathin sections were stained with 5% uranyl acetate aqueous solution and lead citrate (1.33% lead nitrate and 1.76% sodium citrate) and examined in a JEM-1011 transmission electron microscope (JEOL, Tokyo, Japan) at 80 kV ([Silva-Silva et al., 2021b]). The images acquired were used for quantification of the number of vacuoles and lipid corpuscles and area of vacuoles, lipid corpuscles, and mitochondria, using ImageJ software (NIH). Quantitative analysis was conducted with five untreated parasites and at least 10 treated parasites. The number of vacuoles and lipid corpuscles was expressed as mean ± standard deviation (SD), and the area of vacuoles, lipid corpuscles, and mitochondria were expressed as percentage of each parasite total area.

[8] = system: L. amazonensis promastigote forms; assay: Flow cytometry with TMRE, mitochondrial membrane potential; assay type: cell-based, Leishmania amazonensis; settings: 24 h, p = 0.0286
Procedure: Heat-killed parasites (60°C bath for 60 min) and untreated parasites were used as positive and negative controls, respectively. After incubation, parasites were centrifuged at 210g for 5 min at room temperature, washed in PBS, incubated with 300 μl of TMRE (50 nM) in the dark for 15 min, at room temperature, and submitted to flow cytometry through CytoFlex flow cytometer (Beckman Coulter Life Sciences, IN, USA). TMRE was excited by 488-nm blue laser, and its fluorescence was collected at 585/42 nm bandpass filter. CytExpert software version 2.1 (Beckman Coulter Life Sciences, IN, USA) was used for flow cytometry analyses ([Mondêgo-Oliveira et al., 2021]).

[9] = system: bacteria; parameters: method as in Zhang et al., 2014; settings: ref Zhang et al., 2014; cited from earlier work
[10] = system: fungi; parameters: method as in Zhang et al., 2014; settings: ref Zhang et al., 2014; cited from earlier work
[11] = system: L. donovani amastigotes, axenically cultured (cell free); parameters: method as in Martińez-Luis et al. (2012); settings: isolated from endophytic Aspergillus sp. strain F1544; ref Martińez-Luis et al. (2012); cited from earlier work
[12] = system: Leishmania; parameters: method as in Campos et al., 2017; settings: ref Campos et al., 2017, cited from earlier work
[13] = peritoneal macrophages (thioglycolate-elicited), BALB/c peritoneal macrophages, 24 h, MTT, mean ± SD, read-out: Cytotoxicity CC50

Question: With CC(C)=CCC/C(C)=C/Cc1c(O)cc(O)c(C(=O)c2ccccc2)c1O [3-geranyl-2,4,6-trihydroxybenzophenone] as the compound, how does the “IC50 against promastigote forms of L. mexicana” value [1] read?
Answer: 4.05 µg/mL

Question: And the “IC50 against promastigote forms of L. infantum” value [2]?
Answer: 15 µg/mL

Question: What about the “IC50 against intracellular amastigote forms of L. infantum” value [3] of the same compound?
Answer: 0.7 µg/mL

Question: What does the source list for C[C@@H]1[C@H](O)[C@@H](C)/C=C/C=C/C=C/C=C/C=C/C=C/C=C/[C@H](O[C@@H]2O[C@H](C)[C@@H](O)[C@H](N)[C@@H]2O)C[C@@H]2O[C@](O)(C[C@@H](O)C[C@@H](O)[C@H](O)CC[C@@H](O)C[C@@H](O)CC(=O)O[C@H]1C)C[C@H](O)[C@H]2C(=O)O [Amphotericin B, amphotericin B, reference compound]?
Answer: SIpro (selectivity index = CC50 macrophages/IC50 promastigote forms) [4]: 312.96; Infection parameters (all) ([5]; 3 µM): significant reduction; SIama (selectivity index = CC50 macrophages/IC50 amastigote forms) [5]: 13.43; IC50 [5]: 0.629 ± 1.39 µM; CC50 at 24 h ([6]; BALB/c): 8.45 ± 1.08 µM

Question: Which “SIpro (selectivity index = CC50 macrophages/IC50 promastigote forms)” value [4] does the source give for COC(=O)c1cc(O)cc(OC)c1C(=O)c1c(O)cc(C)cc1OC [Monomethylsulochrin, monomethylsulochrin] here?
Answer: 5.08

Question: And the IC50 [4]?
Answer: 18 ± 1.11 µM

Question: And the “Parameters of infection (amastigote number in 100 cells, percentage of infected cells, mean of amastigotes per infected cell)” value ([5]; 6 µM, p = 0.0082, 0.0033, 0.0041)?
Answer: statistically significant reduction

Question: What about the “SIama (selectivity index = CC50 macrophages/IC50 amastigote forms)” value [5] of the same compound?
Answer: 18.00

Question: And the IC50 ([5]; infected BALB/c peritoneal macrophages, mean ± SD)?
Answer: 5.09 ± 1.06 µM

Question: And the CC50 at 24 h [6, 13]?
Answer: 91.6 ± 1.28 µM

Question: And the “Ultrastructural changes: number of vacuoles, vacuoles area, lipid corpuscles area, mitochondria area” value [7]?
Answer: statistically significant changes

Question: What about the “Change in Δψm” value ([8]; 18.04 µM) of the same compound?
Answer: significant decrease

Question: What about the “Decrease in the mitochondrial membrane potential” value ([8]; IC50 concentration) of the same compound?
Answer: 25.9%

Question: What about the Antibacterial activity [9] of the same compound?
Answer: weak antibacterial activity

Question: And the Antifungal activity [10]?
Answer: no antifungal activity

Question: Which IC50 [4] does the source give for CC/C=C\[C@H](O)[C@H](O)C1=C(C)C(=O)[C@]2(O1)C(=O)N[C@@](OC)(C(=O)c1ccccc1)[C@@H]2O [Pseurotin A, pseurotin A] here?
Answer: > 500 µM

Question: What about the CC50 at 24 h [6, 13] of the same compound?
Answer: 654.4 ± 1.19 µM

Question: What about the “IC50 against axenically cultured (cell free) L. donovani amastigotes” value [11] of the same compound?
Answer: 5.8 µg/mL (≈ 13.4 µM)

Question: Which results are given for “anhydrocochlioquinone A [anhydrocochlioquinone A (ANDC-A)]”?
Answer: Leishmanicidal activity EC50 [12]: 22.4 µg/mL; EC50 ([12]; read-out: Leishmanicidal activity EC50): 44 µM
